Tests used:
α1D-AR + β2-syntrophin [1] = biological target: T1, α1D-AR + β2-syntrophin (Homo sapiens, UniProt P25100); experiment: [3H]-PI hydrolysis, HEK293 cells, agonist; type: cell-based
T1 sequence (P25100 1-572): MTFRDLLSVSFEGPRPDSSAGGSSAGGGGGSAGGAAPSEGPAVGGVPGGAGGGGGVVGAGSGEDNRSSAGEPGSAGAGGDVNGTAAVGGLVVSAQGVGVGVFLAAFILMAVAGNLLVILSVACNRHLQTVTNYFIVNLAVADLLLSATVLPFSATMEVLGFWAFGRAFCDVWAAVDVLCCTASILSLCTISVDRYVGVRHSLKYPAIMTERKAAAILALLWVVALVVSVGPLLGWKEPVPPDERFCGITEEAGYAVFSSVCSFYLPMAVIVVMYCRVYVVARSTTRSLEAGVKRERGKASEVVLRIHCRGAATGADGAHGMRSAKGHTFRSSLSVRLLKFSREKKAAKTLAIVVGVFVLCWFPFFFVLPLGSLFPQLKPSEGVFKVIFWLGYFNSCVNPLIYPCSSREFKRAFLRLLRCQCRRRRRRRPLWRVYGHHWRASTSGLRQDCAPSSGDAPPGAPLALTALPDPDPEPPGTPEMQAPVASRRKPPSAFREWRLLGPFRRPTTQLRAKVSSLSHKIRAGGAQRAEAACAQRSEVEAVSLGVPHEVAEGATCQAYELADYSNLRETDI
T1 sequence (Q61235 1-520 partner): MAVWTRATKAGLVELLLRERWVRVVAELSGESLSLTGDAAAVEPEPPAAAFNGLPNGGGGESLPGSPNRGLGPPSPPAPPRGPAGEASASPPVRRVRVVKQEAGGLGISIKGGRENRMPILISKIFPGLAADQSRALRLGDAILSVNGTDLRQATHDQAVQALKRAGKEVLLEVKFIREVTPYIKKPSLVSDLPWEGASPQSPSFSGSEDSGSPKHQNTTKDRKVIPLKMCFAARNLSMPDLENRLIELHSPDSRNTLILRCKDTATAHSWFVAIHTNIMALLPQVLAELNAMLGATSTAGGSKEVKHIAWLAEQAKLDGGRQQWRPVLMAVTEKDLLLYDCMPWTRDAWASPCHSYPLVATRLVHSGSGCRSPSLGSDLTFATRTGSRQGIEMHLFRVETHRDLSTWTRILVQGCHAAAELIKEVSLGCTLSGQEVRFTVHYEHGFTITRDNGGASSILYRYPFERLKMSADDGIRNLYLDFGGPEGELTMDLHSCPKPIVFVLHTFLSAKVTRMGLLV

α1D-AR + β1-syntrophin [2] = biological target: T2, α1D-AR + β1-syntrophin (Homo sapiens, UniProt P25100); experiment: [3H]-PI hydrolysis, HEK293 cells, agonist; type: cell-based
T2 sequence (P25100 1-572): T1 sequence (P25100 1-572)
T2 sequence (Q99L88 2-537 partner): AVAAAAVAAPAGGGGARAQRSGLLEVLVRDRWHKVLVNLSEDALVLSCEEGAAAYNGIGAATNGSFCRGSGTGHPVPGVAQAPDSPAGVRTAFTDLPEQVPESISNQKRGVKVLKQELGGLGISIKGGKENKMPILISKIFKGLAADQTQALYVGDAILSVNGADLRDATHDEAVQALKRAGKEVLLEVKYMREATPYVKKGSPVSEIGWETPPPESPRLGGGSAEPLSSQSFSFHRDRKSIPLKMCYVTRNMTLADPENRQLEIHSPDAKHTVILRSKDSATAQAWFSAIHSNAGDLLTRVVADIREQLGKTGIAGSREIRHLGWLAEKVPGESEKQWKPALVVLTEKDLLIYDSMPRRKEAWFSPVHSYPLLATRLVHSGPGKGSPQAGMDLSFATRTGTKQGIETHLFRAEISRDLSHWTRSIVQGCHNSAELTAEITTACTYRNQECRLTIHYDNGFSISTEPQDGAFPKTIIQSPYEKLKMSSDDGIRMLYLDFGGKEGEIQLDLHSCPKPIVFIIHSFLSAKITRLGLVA

α1D-AR + α-syntrophin [3] = biological target: T3, α1D-AR + α-syntrophin (Homo sapiens, UniProt P25100); experiment: [3H]-PI hydrolysis, HEK293 cells, agonist; type: cell-based
T3 sequence (P25100 1-572): T1 sequence (P25100 1-572)
T3 sequence (Q61234 1-503 partner): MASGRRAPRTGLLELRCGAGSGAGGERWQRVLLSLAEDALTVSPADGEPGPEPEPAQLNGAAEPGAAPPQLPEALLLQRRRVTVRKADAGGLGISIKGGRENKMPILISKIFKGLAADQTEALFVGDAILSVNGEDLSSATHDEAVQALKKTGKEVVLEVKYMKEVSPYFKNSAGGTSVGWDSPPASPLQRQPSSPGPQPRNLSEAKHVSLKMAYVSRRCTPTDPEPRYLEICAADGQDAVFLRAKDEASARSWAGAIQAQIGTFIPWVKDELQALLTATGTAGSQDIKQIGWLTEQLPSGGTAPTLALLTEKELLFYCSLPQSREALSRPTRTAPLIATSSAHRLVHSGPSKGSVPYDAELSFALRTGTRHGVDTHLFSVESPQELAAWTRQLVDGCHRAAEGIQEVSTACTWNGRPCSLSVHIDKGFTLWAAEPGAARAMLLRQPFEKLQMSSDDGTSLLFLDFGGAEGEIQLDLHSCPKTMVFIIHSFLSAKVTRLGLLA

α1D-AR + α-syntrophin [4] = biological target: T3, α1D-AR + α-syntrophin; experiment: [3H]-prazosin competition, HEK293 membranes; type: binding
α1D-AR + β2-syntrophin [5] = biological target: T1, α1D-AR + β2-syntrophin; experiment: [3H]-prazosin competition, HEK293 membranes; type: binding
α1D-AR + β1-syntrophin [6] = biological target: T2, α1D-AR + β1-syntrophin; experiment: [3H]-prazosin competition, HEK293 membranes; type: binding
[7] = 1 nM [3H]-prazosin, 30 min, 37 °C, value is -log10 of KI in M, single site

Row | EC50 (α1D-AR + β2-syntrophin [1]) [nM] | EC50 (α1D-AR + β1-syntrophin [2]) [nM] | EC50 (α1D-AR + α-syntrophin [3]) [nM] | SMILES | further results
1 | 35.5 | 13.8 | 15.8 | CNCC(O)c1ccc(O)c(O)c1 (racemic) [(+/−) Epinephrine] | –
2 | – | – | – | COc1ccccc1N1CCN(CCCNc2c(C)c(=O)n(C)c(=O)n2C)CC1 [5-MU] | Ki (α1D-AR + α-syntrophin [4]): 27.5 nM; Ki (α1D-AR + β2-syntrophin [5]): 36.3 nM; Ki (α1D-AR + β1-syntrophin [6]): 23.4 nM
3 | 126 | 155 | 67.6 | CNC[C@H](O)c1cccc(O)c1 [(−) Phenylephrine] | –
4 | – | – | – | CCS(=O)(=O)Nc1cccc(C(=C2CCCCC2)c2cnc[nH]2)c1 [A-315456] | +α-syntrophin (α1D-AR + α-syntrophin [4]; [7]): 7.25 ± 0.13 M; +β2-syntrophin (α1D-AR + β2-syntrophin [5]; [7]): 7.42 ± 0.21 M; +β1-syntrophin (α1D-AR + β1-syntrophin [6]; [7]): 7.27 ± 0.08 M

Reference: PMC4045409 (Biochemical and biophysical research communications, 2011)
